Assay results as given in ChEMBL document CHEMBL1138599, “Conjugation with alpha-linolenic acid improves cancer cell uptake and cytotoxicity of doxorubicin” (Bioorg Med Chem Lett, 2009).

Experiments:
MDA-MB-231 [1] = assay: Drug uptake in human MDA-MB-231 cells by flow cytometry; type: ADME, cell-based
MCF7 [2] = assay: Drug uptake in human MCF7 cells by flow cytometry; type: ADME, cell-based
HepG2 = assay: Cytotoxicity against human HepG2 cells MTT assay; type: functional, cell-based
MDA-MB-231 [3] = assay: Cytotoxicity against human MDA-MB-231 cells MTT assay; type: functional, cell-based
MCF7 [4] = assay: Cytotoxicity against human MCF7 cells by MTT assay; type: functional, cell-based

| Drug uptake (MDA-MB-231 [1]) | Drug uptake (MCF7 [2]) | SMILES | IC50 (HepG2) [µM] | IC50 (MDA-MB-231 [3]) [µM] | IC50 (MCF7 [4]) [µM] |
| --- | --- | --- | --- | --- | --- |
| Dose-dependent effect | Dose-dependent effect | CC/C=C\C/C=C\C/C=C\CCCCCCCC(=O)N[C@H]1C[C@H](O[C@H]2C[C@](O)(C(=O)CO)Cc3c(O)c4c(c(O)c32)C(=O)c2c(OC)cccc2C4=O)O[C@@H](C)[C@H]1O | 6.8 | 3.1 | 4.7 |
| Dose-dependent effect | Dose-dependent effect | COc1cccc2c1C(=O)c1c(O)c3c(c(O)c1C2=O)C[C@@](O)(C(=O)CO)C[C@@H]3O[C@H]1C[C@H](N)[C@H](O)[C@H](C)O1 [DOXORUBICIN] | 14.3 | 10.2 |  |
